Holding throughout (type): cell-based
Experiment [1] addresses T1, CB2 receptor (Homo sapiens, UniProt P34972).
T1 construct: expressed in transfected cells
In words: Calcium mobilization assay, antagonist mode (CP55940 challenge), CHO expressing CB2. The following applies: for SI, selectivity index for the CB2, SI = IC50(CB1)/IC50(CB2): antagonist mode. As for the experimental part:
(§1) Chinese hamster ovarian (CHO) cells collected from the American Type Culture Collection were maintained in Ham’s F-12K (Kaighn’s) supplemented with 100 mg/L streptomycin, 100 mg/L penicillin, and 10% fetal bovine serum (FBS) in a humidified atmosphere of 5% CO2 at 37 °C. CHO cells were co-transfected with plasmids encoding CB1 or CB2 and Gα16 by electroporation. To establish stable cell lines, transfected cells were seeded on 10 cm dishes with 40 μg/mL blasticidin and 1 mg/mL G418 in culture medium after 24 h. The selection medium was substituted once every 3 days until colonies formed. A solitary colony was obtained, propagated, and assessed using a calcium mobilization assay to verify the function and expression of the transfected genes.
(§2) 3 × 10^4 cells/well were employed to seed cells onto 96-well plates, which were subsequently incubated throughout the night. Cells were then treated with 2 μM Fluo-4 AM in HBSS (0.3 mM Na2HPO4, 5.4 mM KCl, 4.2 mM NaHCO3, 0.4 mM KH2PO4, 0.5 mM MgCl2, 1.3 mM CaCl2, 137 mM NaCl, 0.6 mM MgSO4, 250 μM sulfinpyrazone, and 5.6 mM D-glucose, pH 7.4) for 45 min at 37 °C. […] Meanwhile, the change of intracellular calcium was measured at an excitation wavelength of 525 and 485 nm. For antagonist mode, the extra dye was washed out and 50 μL of HBSS with test compounds, DMSO (negative control), or AM630 (positive control) was introduced. […] The change of intracellular calcium was captured at an excitation wavelength of 525 and 485 nm. To be noticed, each experiment has been independently replicated three times, with three repetitions and eight gradients each time.
(§3) The collected data were processed with GraphPad Prism software (GraphPad). […] Means ± SEM were computed utilizing this software. The analyses were evaluated by the Student t test. When the p value is smaller than 0.05, the result is statistically significant.
On the technique in general: A change in cytosolic calcium serves as a functional read-out for many receptors and channels.

Experiment [2] concerns the target T2, CB1 receptor (Homo sapiens, UniProt P21554). Briefly: Calcium mobilization assay, agonist mode, CHO expressing CB1 and Gα16. The following applies: agonist activity, CHO expressing CB1, mean ± SEM; read-out: CB1 EC50. On the procedure: as §1
(§4) 3 × 10^4 cells/well were employed to seed cells onto 96-well plates, which were subsequently incubated throughout the night. […] For antagonist mode, the extra dye was washed out and 50 μL of HBSS with test compounds, DMSO (negative control), or AM630 (positive control) was introduced. […] To be noticed, each experiment has been independently replicated three times, with three repetitions and eight gradients each time.
as §3

The target of experiment [3] is T1, CB2 receptor. Briefly: Calcium mobilization assay, agonist mode, CHO expressing CB2 and Gα16. The following applies: for SI, selectivity index for the CB2, SI = EC50(CB1)/EC50(CB2): agonist mode. On the procedure:
as §1, §4, §3

The target of experiment [4] is T2, CB1 receptor. In words: Calcium mobilization assay, antagonist mode (CP55940 challenge), CHO expressing CB1. Conditions: antagonist activity, CHO expressing CB1; read-out: CB1 IC50. As for the experimental part:
as §1, §2, §3

Setting [5] is: agonist activity, CHO expressing CB2, three independent assays, mean ± SEM, read-out: CB2 EC50.
Setting [6] is: single independent experiment, replicate 1, read-out: CB2 agonist(μM) replicate 1.
Where [7] appears, read: single independent experiment, replicate 2, read-out: CB2 agonist(μM) replicate 2.
The mark [8] stands for this setting: single independent experiment, replicate 3, read-out: CB2 agonist(μM) replicate3.
Setting [9] is: antagonist activity, CHO expressing CB2, three independent assays, mean ± SEM, read-out: CB2 IC50.
Where [10] appears, read: single independent experiment, replicate 1, read-out: CB2 antagonist(μM) replicate 1.
[11] abbreviates: single independent experiment, replicate 2, read-out: CB2 antagonist(μM) replicate 2.
Where [12] appears, read: single independent experiment, replicate 3, read-out: CB2 antagonist(μM) replicate3.

Like-named read-outs stand apart in the source and are kept apart here.

T2 sequence (P21554 whole entry): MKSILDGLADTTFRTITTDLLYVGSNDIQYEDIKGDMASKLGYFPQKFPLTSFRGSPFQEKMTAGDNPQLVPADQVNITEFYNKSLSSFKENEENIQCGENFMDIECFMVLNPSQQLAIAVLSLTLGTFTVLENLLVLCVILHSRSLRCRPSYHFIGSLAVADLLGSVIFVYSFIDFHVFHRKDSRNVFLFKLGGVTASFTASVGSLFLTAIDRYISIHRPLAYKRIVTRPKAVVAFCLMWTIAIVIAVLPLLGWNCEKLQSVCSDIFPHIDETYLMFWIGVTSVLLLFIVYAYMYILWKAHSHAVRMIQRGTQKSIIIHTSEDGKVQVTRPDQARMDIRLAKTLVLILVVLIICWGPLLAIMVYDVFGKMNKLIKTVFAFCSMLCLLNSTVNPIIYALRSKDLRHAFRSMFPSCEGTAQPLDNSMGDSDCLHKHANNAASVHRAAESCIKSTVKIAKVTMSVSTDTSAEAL
T1 sequence (P34972 whole entry): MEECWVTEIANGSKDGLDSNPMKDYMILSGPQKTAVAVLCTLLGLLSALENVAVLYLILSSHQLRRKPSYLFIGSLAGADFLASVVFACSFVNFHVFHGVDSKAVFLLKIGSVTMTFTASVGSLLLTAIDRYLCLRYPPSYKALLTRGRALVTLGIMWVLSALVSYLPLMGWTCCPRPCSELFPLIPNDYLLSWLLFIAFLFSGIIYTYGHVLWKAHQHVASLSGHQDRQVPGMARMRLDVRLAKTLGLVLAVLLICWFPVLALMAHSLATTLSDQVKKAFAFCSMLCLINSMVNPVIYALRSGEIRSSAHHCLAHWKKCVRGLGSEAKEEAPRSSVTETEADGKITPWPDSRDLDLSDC

As for `COc1ccc(C(=O)c2c(C)n(CCN3CCOCC3)c3cc(I)ccc23)cc1` [AM630, reference compound], the IC50 was found to be 0.34 ± 0.1 µM in experiment [1] (CB2 IC50, antagonist activity, CHO expressing CB2, three independent assays, mean ± SEM); 0.153 µM in experiment [1] (CB2 antagonist(μM) replicate 1, single independent experiment, replicate 1); 0.319 µM in experiment [1] (CB2 antagonist(μM) replicate 2, single independent experiment, replicate 2); 0.55 µM in experiment [1] (CB2 antagonist(μM) replicate3, single independent experiment, replicate 3).

For the compound `CC(C)N1C(=O)SC(=Cc2ccccc2OC(=O)C2CC2)C1=O` [Compound 22, 2-((3-Isopropyl-2,4-dioxothiazolidin-5-ylidene)methyl)phenyl Cyclopropane Carboxylate], the EC50 in experiment [2] is over 10 µM; in experiment [3] (setting [5]) it was 4.12 ± 1.31 µM; in experiment [3] (setting [6]) it was 2.19 µM; in experiment [3] (setting [7]) it was 6.61 µM; in experiment [3] (setting [8]) it was 3.56 µM. For the same compound, in experiment [3], the “SI, selectivity index for the CB2, SI = EC50(CB1)/EC50(CB2)” value is reported as over 2.

Consider `CC(C)N1C(=O)SC(=Cc2ccccc2OC(=O)C2CCCCCC2)C1=O` [Compound 23, 2-((3-Isopropyl-2,4-dioxothiazolidin-5-ylidene)methyl)phenyl Cycloheptane Carboxylate], for which the EC50 in experiment [2] was over 10 µM; in experiment [3] (setting [5]), 0.82 ± 0.41 µM; in experiment [3] (setting [6]) it was 0.225 µM; in experiment [3] (setting [7]), 0.638 µM; in experiment [3] (setting [8]), 1.6 µM. Further, the “SI, selectivity index for the CB2, SI = EC50(CB1)/EC50(CB2)” value in experiment [3] was over 12.

With `CC(C)N1C(=O)SC(=Cc2ccccc2OC(=O)c2ccc(Cl)nc2)C1=O` [Compound 24, 2-((3-Isopropyl-2,4-dioxothiazolidin-5-ylidene)methyl)phenyl 6-Chloronico Tinate], the EC50 was over 10 µM in experiment [2]; 3.93 ± 1.97 µM in experiment [3] (setting [5]); 7.84 µM in experiment [3] (setting [6]); 2.4 µM in experiment [3] (setting [7]); 1.54 µM in experiment [3] (setting [8]). Also, the “SI, selectivity index for the CB2, SI = EC50(CB1)/EC50(CB2)” value in experiment [3] is over 2.

Consider `CC(C)N1C(=O)SC(=Cc2cccc(OCc3ccccc3C#N)c2)C1=O` [Compound 25, 2-((3-((3-Isopropyl-2,4-dioxothiazolidin-5-ylidene)methyl)phenoxy)methyl) Benzonitrile], for which the EC50 in experiment [2] and in experiment [3] (setting [5]) was over 10 µM each time.

As for `CC(C)CN1C(=O)SC(=Cc2cccc(OCc3ccccc3C#N)c2)C1=O` [Compound 26, 2-((3-((3-Isobutyl-2,4-dioxothiazolidin-5-ylidene)methyl)phenoxy)methyl) Benzonitrile], the EC50 in experiment [2] and in experiment [3] (setting [5]) was over 10 µM each time.

Regarding `N#Cc1ccccc1COc1cccc(C=C2SC(=O)N(C3CCCC3)C2=O)c1` [Compound 27, 2-((3-((3-Cyclopentyl-2,4-dioxothiazolidin-5-ylidene)methyl)phenoxy)methyl) Benzonitrile], the EC50 in experiment [2] and in experiment [3] (setting [5]) was over 10 µM each time.

As for `COc1ccc(C=C2SC(=O)N(C(C)C)C2=O)cc1OC(=O)c1cccc(Br)c1` [Compound 28, 5-((3-Isopropyl-2,4-dioxothiazolidin-5-ylidene)methyl)-2-methoxyphenyl 3-Bromobenzoate], the EC50 in experiment [2] is over 10 µM; in experiment [3] (setting [5]), 2.96 ± 2.3 µM; in experiment [3] (setting [6]), 0.637 µM; in experiment [3] (setting [7]) it was 7.56 µM; in experiment [3] (setting [8]) it was 0.693 µM. The “SI, selectivity index for the CB2, SI = EC50(CB1)/EC50(CB2)” value in experiment [3] is given as over 3.

For `COc1ccc(C=C2SC(=O)N(C(C)C)C2=O)cc1OC(=O)c1ccccc1F` [Compound 29, 5-((3-Isopropyl-2,4-dioxothiazolidin-5-ylidene)methyl)-2-methoxyphenyl 2-Fluorobenzoate], the EC50 in experiment [2] and in experiment [3] (setting [5]) was over 10 µM each time.

Regarding `COc1ccc(/C=C2\SC(=O)N(C(C)C)C2=O)cc1OC(=O)c1ccc(CCl)cc1` [Compound 30, 5-((3-Isopropyl-2,4-dioxothiazolidin-5-ylidene) Methyl)-2-methoxyphenyl 4-(Chloromethyl) Benzoate], the EC50 in experiment [2] and in experiment [3] (setting [5]) was over 10 µM in each case.

`COc1ccc(C=C2SC(=O)N(C(C)C)C2=O)cc1OC(=O)C(C)(C)CCl` [Compound 31, 5-((3-Isopropyl-2,4-dioxothiazolidin-5-ylidene) Methyl)-2-methoxyphenyl 3-Chloro-2,2-dimethylpropanoate]: the EC50 in experiment [2] was over 10 µM; in experiment [3] (setting [5]), 3.38 ± 2.15 µM; in experiment [3] (setting [6]) it was 0.814 µM; in experiment [3] (setting [7]), 1.68 µM; in experiment [3] (setting [8]), 7.65 µM. Further, in experiment [3], the “SI, selectivity index for the CB2, SI = EC50(CB1)/EC50(CB2)” value was over 3.

On to `COc1ccc(/C=C2\SC(=O)N(C(C)C)C2=O)cc1OC(=O)C12CC3CC(CC(C3)C1)C2` [Compound 32, 5-((3-Isopropyl-2,4-dioxothiazolidin-5-ylidene) Methyl)-2-methoxyphenyl (3r, 5r, 7r)-Adamantane-1-carboxylate], for which the EC50 was over 10 µM in experiment [2]; 0.83 ± 0.65 µM in experiment [3] (setting [5]); 0.093 µM in experiment [3] (setting [6]); 0.287 µM in experiment [3] (setting [7]); 2.12 µM in experiment [3] (setting [8]). The “SI, selectivity index for the CB2, SI = EC50(CB1)/EC50(CB2)” value in experiment [3] is given as over 12.

As for `CCCC(=O)Oc1cc(C=C2SC(=O)N(C(C)C)C2=O)ccc1OC` [Compound 33, 5-((3-Isopropyl-2,4-dioxothiazolidin-5-ylidene)methyl)-2-methoxyphenylbuty Rate], the EC50 in experiment [2] and in experiment [3] (setting [5]) was over 10 µM in each case.

As for `COc1ccc(C=C2SC(=O)N(CC(C)C)C2=O)cc1OC(=O)C(C)(C)CCl` [Compound 34, 5-((3-Isobutyl-2,4-dioxothiazolidin-5-ylidene)methyl)-2-methoxyphenyl 3-Chloro-2,2-dimethylpropanoate], the EC50 in experiment [2] and in experiment [3] (setting [5]) was over 10 µM throughout.

`COc1ccc(C=C2SC(=O)N(CC(C)C)C2=O)cc1OC(=O)c1cccc(Br)c1` [Compound 35, 5-((3-Isobutyl-2,4-dioxothiazolidin-5-ylidene)methyl)-2-methoxyphenyl 3-Bromobenzoate]: the EC50 in experiment [2] and in experiment [3] (setting [5]) was over 10 µM in each case.

`COc1ccc(C=C2SC(=O)N(CC(C)C)C2=O)cc1OC(=O)c1ccc(CCl)cc1` [Compound 36, 5-((3-Isobutyl-2,4-dioxothiazolidin-5-ylidene)methyl)-2-methoxyphenyl 4-(Chloromethyl)benzoate]: the EC50 in experiment [2] and in experiment [3] (setting [5]) was over 10 µM throughout.

As to `COc1ccc(/C=C2\SC(=O)N(CC(C)C)C2=O)cc1OC(=O)C12CC3CC(CC(C3)C1)C2` [Compound 37, 5-((3-Isobutyl-2,4-dioxothiazolidin-5-ylidene)methyl)-2-methoxyphenyl (3r, 5r,7r)-adamantane-1-carboxylate], the EC50 in experiment [2] and in experiment [3] (setting [5]) was over 10 µM in each case.

`COc1ccc(C=C2SC(=O)N(C(C)C)C2=O)cc1OC(=O)CCCCl` [Compound 38, 5-((3-Isopropyl-2,4-dioxothiazolidin-5-ylidene)methyl)-2-methoxyphenyl 4-Chlorobutanoate]: the IC50 in experiment [4] is over 10 µM; in experiment [1] (setting [9]), 0.4 ± 0.16 µM; in experiment [1] (setting [10]) it was 0.715 µM; in experiment [1] (setting [11]), 0.256 µM; in experiment [1] (setting [12]), 0.224 µM. Also, in experiment [1], the “SI, selectivity index for the CB2, SI = IC50(CB1)/IC50(CB2)” value is on record as over 25.

As to `CCCS(=O)(=O)Oc1cc(C=C2SC(=O)N(C(C)C)C2=O)ccc1OC` [Compound 39, 5-((3-Isopropyl-2,4-dioxothiazolidin-5-ylidene)methyl)-2-methoxyphenyl Propane-1-sulfonate], the IC50 in experiment [4] was over 10 µM; in experiment [1] (setting [9]), 0.33 ± 0.09 µM; in experiment [1] (setting [10]), 0.445 µM; in experiment [1] (setting [11]) it was 0.115 µM; in experiment [1] (setting [12]), 0.44 µM. Further, the “SI, selectivity index for the CB2, SI = IC50(CB1)/IC50(CB2)” value in experiment [1] stood at 23.

For the origin of these results see paper PMC10623575, “Discovery of Potent and Selective CB2 Agonists Utilizing a Function-Based Computational Screening Protocol” (ACS Chemical Neuroscience, 2023).
